Values after ≈ are worked out from the molar mass of the structure shown.
What was measured:
HepG2 = test: Antiproliferative activity against human HepG2 cells by MTT assay; assay type: functional, cell-based
Bel-7402 = test: Antiproliferative activity against human Bel-7402 cells by MTT assay; assay type: functional, cell-based
[1] = Solubility of the compound in 0.9% NaCl at pH 7.4; assay type: physicochemical
[2] = Solubility of the compound in saline/DMSO (95/5% V/V) at pH 7.4; assay type: physicochemical
[3] = Solubility of the compound in saline/solutol HS-15 (90/10% V/V) at pH 7.4; assay type: physicochemical
[4] = Solubility of the compound in saline/PEG400 (80/20% V/V) at pH 7.4; assay type: physicochemical
[5] = Solubility of the compound in saline/solutol HS-15 (95/5% V/V) at pH 7.4; assay type: physicochemical
[6] = Solubility of the compound in PBS/DMSO (95/5% V/V) at pH 7.2 to 7.4; assay type: physicochemical
[7] = Solubility of the compound in saline/DMSO/solutol HS-15 (85/5/10% V/V/V) at pH 7.4; assay type: physicochemical
[8] = Solubility of the compound in saline/PEG400 (95/5% V/V) at pH 7.4; assay type: physicochemical
[9] = Half life in ICR mouse at 10 mg/kg, iv measured after 0.083 to 12 hrs by UPLC-MS/MS analysis; assay type: ADME, organism-based; details: in vivo, time 0.083-12 hrs
[10] = AUC(0 to t) in ICR mouse at 10 mg/kg, iv measured after 0.083 to 12 hrs by UPLC-MS/MS analysis; assay type: ADME, organism-based; design: time upper 12 hrs, dose 10 mg/kg, time lower 0.083 hrs, route iv; details: in vivo
[11] = MRT (0 to t) in ICR mouse at 10 mg/kg, iv measured after 0.083 to 12 hrs by UPLC-MS/MS analysis; assay type: ADME, organism-based; details: in vivo, time 0.083-12 hrs
[12] = Clearance in ICR mouse at 45 mg/kg, po measured after 0.083 to 12 hrs by UPLC-MS/MS analysis; assay type: ADME, organism-based; details: in vivo, time 0.083-12 hrs
[13] = MRT (0 to t) in ICR mouse at 45 mg/kg, po measured after 0.083 to 12 hrs by UPLC-MS/MS analysis; assay type: ADME, organism-based; details: in vivo, time 0.083-12 hrs
[14] = Oral bioavailability in ICR mouse at 45 mg/kg measured after 0.083 to 12 hrs by UPLC-MS/MS analysis; assay type: ADME, organism-based; details: in vivo, time 0.083-12 hrs
[15] = Apparent volume of distribution in ICR mouse at 45 mg/kg, po measured after 0.083 to 12 hrs by UPLC-MS/MS analysis; assay type: ADME, organism-based; details: in vivo, time 0.083-12 hrs
[16] = Half life in ICR mouse at 45 mg/kg, po measured after 0.083 to 12 hrs by UPLC-MS/MS analysis; assay type: ADME, organism-based; details: in vivo, time 0.083-12 hrs
[17] = AUC (0 to t) in ICR mouse at 45 mg/kg, po measured after 0.083 to 12 hrs by UPLC-MS/MS analysis; assay type: ADME, organism-based; design: dose 45 mg/kg, time upper 12 hrs, time lower 0.083 hrs, route po; details: in vivo
[18] = Cmax in ICR mouse at 45 mg/kg, po measured after 0.083 to 12 hrs by UPLC-MS/MS analysis; assay type: ADME, organism-based; design: dose 45 mg/kg, time upper 12 hrs, time lower 0.083 hrs, route po; details: in vivo
[19] = Acute toxicity in ip dosed ICR mouse assessed as maximum tolerated dose; assay type: organism-based; details: in vivo
[20] = Cmax in ICR mouse at 10 mg/kg, iv measured after 0.083 to 12 hrs by UPLC-MS/MS analysis; assay type: ADME, organism-based; design: time 0.083-12 hrs, dose 10 mg/kg, route iv; details: in vivo
[21] = Acute toxicity in po dosed ICR mouse assessed as maximum tolerated dose; assay type: organism-based; details: in vivo
[22] = Apparent volume of distribution in ICR mouse at 10 mg/kg, iv measured after 0.083 to 12 hrs by UPLC-MS/MS analysis; assay type: ADME, organism-based; details: in vivo, time 0.083-12 hrs, read-out: Vz
[23] = Clearance in ICR mouse at 10 mg/kg, iv measured after 0.083 to 12 hrs by UPLC-MS/MS analysis; assay type: ADME, organism-based; details: in vivo, time 0.083-12 hrs

C[C@H]1CCC/C=C/[C@@H]2C[C@H](OC(=O)NCc3cccnc3)C[C@H]2[C@H](O)/C=C/C(=O)O1
IC50 (HepG2): > 1 µM

C[C@H]1CCC/C=C/[C@@H]2C[C@H](OC(=O)c3ccccn3)C[C@H]2[C@H](OC(=O)c2ccccn2)/C=C/C(=O)O1
IC50 (HepG2): 0.34 µM

C[C@H]1CCC/C=C/[C@@H]2C[C@H](OC(=O)NCc3ccccc3)C[C@H]2[C@H](O)/C=C/C(=O)O1
IC50 (HepG2): > 1 µM

C[C@H]1CCC/C=C/[C@@H]2C[C@H](OC(=O)OCCSSCCO)C[C@H]2[C@H](O)/C=C/C(=O)O1
IC50 (HepG2): > 1 µM

C[C@H]1CCC/C=C/[C@@H]2C[C@H](OC(=O)c3cccnc3)C[C@H]2[C@H](OC(=O)c2cccnc2)/C=C/C(=O)O1
IC50 (HepG2): > 1 µM
IC50 (Bel-7402): > 1 µM

C[C@H]1CCC/C=C/[C@@H]2C[C@H](OC(=O)Nc3ccccc3)C[C@H]2[C@H](O)/C=C/C(=O)O1
IC50 (HepG2): > 1 µM

C[C@H]1CCC/C=C/[C@@H]2C[C@H](OC(=O)OCc3ccncc3)C[C@H]2[C@H](O)/C=C/C(=O)O1
IC50 (HepG2): > 1 µM
IC50 (Bel-7402): > 1 µM

C[C@H]1CCC/C=C/[C@@H]2C[C@H](OC(=O)c3ccncc3)C[C@H]2[C@H](OC(=O)c2ccncc2)/C=C/C(=O)O1
IC50 (HepG2): > 1 µM

C[C@H]1CCC/C=C/[C@@H]2C[C@H](O)C[C@H]2[C@H](OC(=O)c2ccncc2)/C=C/C(=O)O1
IC50 (HepG2): 0.65 µM

C[C@H]1CCC/C=C/[C@@H]2C[C@H](OC(=O)NCc3ccncc3)C[C@H]2[C@H](O)/C=C/C(=O)O1
IC50 (HepG2): > 1 µM

C[C@H]1CCC/C=C/[C@@H]2C[C@H](OC(=O)c3ccccn3)C[C@H]2[C@H](O)/C=C/C(=O)O1
IC50 (HepG2): 0.29 µM

C[C@H]1CCC/C=C/[C@@H]2C[C@H](OC(=O)c3cccnc3)C[C@H]2[C@H](O)/C=C/C(=O)O1
solubility [1]: < 1 mg/mL
solubility [2]: < 1 mg/mL
IC50 (HepG2): 0.95 µM
solubility [3]: < 1 mg/mL
solubility [4]: < 1 mg/mL
solubility [5]: < 1 mg/mL
solubility [6]: < 1 mg/mL
solubility [7]: 3 mg/mL (≈ 7.78 mM)
IC50 (Bel-7402): 0.39 µM
solubility [8]: < 1 mg/mL

C[C@H]1CCC/C=C/[C@@H]2C[C@H](OC(=O)c3cncc(F)c3)C[C@H]2[C@H](O)/C=C/C(=O)O1
IC50 (HepG2): 0.68 µM

C[C@H]1CCC/C=C/[C@@H]2C[C@H](O)C[C@H]2[C@H](OC(=O)c2ccccn2)/C=C/C(=O)O1
IC50 (HepG2): 0.96 µM

Cc1cncc(C(=O)O[C@@H]2C[C@H]3[C@H](O)/C=C/C(=O)O[C@@H](C)CCC/C=C/[C@@H]3C2)c1
IC50 (HepG2): > 1 µM

C[C@H]1CCC/C=C/[C@@H]2C[C@H](OC(=O)OCc3ccccn3)C[C@H]2[C@H](O)/C=C/C(=O)O1
IC50 (HepG2): > 1 µM

COc1cccc2c1C(=O)c1c(O)c3c(c(O)c1C2=O)C[C@@](O)(C(=O)CO)C[C@@H]3O[C@H]1C[C@H](N)[C@H](O)[C@H](C)O1 [DOXORUBICIN]
IC50 (HepG2): 0.39 µM
IC50 (Bel-7402): > 1 µM

C[C@H]1CCC/C=C/[C@@H]2C[C@H](OC(=O)c3cncc(F)c3)C[C@H]2[C@H](OC(=O)c2cncc(F)c2)/C=C/C(=O)O1
IC50 (HepG2): > 1 µM

COc1ccc(COC(=O)O[C@@H]2C[C@H]3[C@H](O)/C=C/C(=O)O[C@@H](C)CCC/C=C/[C@@H]3C2)cn1
IC50 (HepG2): > 1 µM

C[C@H]1CCC/C=C/[C@@H]2C[C@H](OC(=O)c3ccncc3)C[C@H]2[C@H](O)/C=C/C(=O)O1
IC50 (HepG2): 0.46 µM

C[C@H]1CCC/C=C/[C@@H]2C[C@H](OC(=O)OCCc3cccnc3)C[C@H]2[C@H](O)/C=C/C(=O)O1
IC50 (HepG2): 0.85 µM
IC50 (Bel-7402): > 1 µM

C[C@H]1CCC/C=C/[C@@H]2C[C@H](OC(=O)CN(C)C)C[C@H]2[C@H](O)/C=C/C(=O)O1
IC50 (HepG2): > 1 µM
IC50 (Bel-7402): > 1 µM

C[C@H]1CCC/C=C/[C@@H]2C[C@H](OC(=O)OCc3cncc(F)c3)C[C@H]2[C@H](O)/C=C/C(=O)O1
IC50 (HepG2): > 1 µM

C[C@H]1CCC/C=C/[C@@H]2C[C@H](OC(=O)OCCS)C[C@H]2[C@H](O)/C=C/C(=O)O1
IC50 (HepG2): > 1 µM

COC(=O)O[C@@H]1C[C@H]2[C@H](O)/C=C/C(=O)O[C@@H](C)CCC/C=C/[C@@H]2C1
IC50 (HepG2): > 1 µM

C[C@H]1CCC/C=C/[C@@H]2C[C@H](OC(=O)OCc3cnc4ccccc4c3)C[C@H]2[C@H](O)/C=C/C(=O)O1
IC50 (HepG2): > 1 µM

Cc1cncc(C(=O)O[C@@H]2/C=C/C(=O)O[C@@H](C)CCC/C=C/[C@@H]3C[C@H](O)C[C@H]32)c1
IC50 (HepG2): > 1 µM

C[C@H]1CCC/C=C/[C@@H]2C[C@H](O)C[C@H]2[C@H](OC(=O)c2cncc(F)c2)/C=C/C(=O)O1
IC50 (HepG2): 0.93 µM

C[C@H]1CCC/C=C/[C@@H]2C[C@H](O)C[C@H]2[C@H](OC(=O)c2cccnc2)/C=C/C(=O)O1
IC50 (HepG2): > 1 µM
IC50 (Bel-7402): 0.27 µM

C[C@H]1CCC/C=C/[C@@H]2C[C@H](O)C[C@H]2[C@H](O)/C=C/C(=O)O1 [BREFELDIN A]
half-life [9]: 9.05 h
solubility [1]: < 1 mg/mL
solubility [2]: < 1 mg/mL
AUC(0-t) [10]: 4.84 µg·h/mL
IC50 (HepG2): 0.08 µM
MRT last [11]: 0.84 h
CL/F [12]: 10.4 L/h/kg
solubility [3]: < 1 mg/mL
MRT last [13]: 1.4 h
solubility [4]: < 1 mg/mL
solubility [5]: < 1 mg/mL
bioavailability [14]: 19%
solubility [6]: < 1 mg/mL
Vz [15]: 31.87132 L/kg
half-life [16]: 2.12 h
AUC(0-t) [17]: 4.13 µg·h/mL
Cmax [18]: 7.14 µg/mL
MTD [19]: < 50 mg/kg
Cmax [20]: 13.2 µg/mL
MTD [21]: < 506 mg/kg
solubility [7]: 1 mg/mL (≈ 3.57 mM)
Vd [22]: 20.6 L/kg
clearance [23]: 1.58 L/h/kg
IC50 (Bel-7402): 0.07 µM
solubility [8]: < 1 mg/mL

C[C@H]1CCC/C=C/[C@@H]2C[C@H](OC(=O)OCc3cccnc3)C[C@H]2[C@H](OC(=O)OCc2cccnc2)/C=C/C(=O)O1
IC50 (HepG2): > 1 µM
IC50 (Bel-7402): 0.43 µM

C[C@H]1CCC/C=C/[C@@H]2C[C@H](OC(=O)NCCO)C[C@H]2[C@H](O)/C=C/C(=O)O1
IC50 (HepG2): > 1 µM

C[C@H]1CCC/C=C/[C@@H]2C[C@H](O)C[C@H]2[C@H](OC(=O)OCc2cccnc2)/C=C/C(=O)O1
IC50 (HepG2): > 1 µM
IC50 (Bel-7402): 0.27 µM

Source: ChEMBL document CHEMBL5113532, “Design and Characterization of a Natural Arf-GEFs Inhibitor Prodrug CHNQD-01255 with Potent Anti-Hepatocellular Carcinoma Efficacy In Vivo” (J Med Chem, 2022)
